# Measurements as given in patent publication US9822130B2, “Triazolo-pyrazinyl derivatives useful as soluble guanylate cyclase activators” (Merck Sharp & Dohme Corp., priority 2014, dated 2017).
# Molecular target: T1, sGC α1/β1 heterodimer stably expressed in CHO-K1 cell line (CHO-K1/sGC) (Homo sapiens, UniProt Q02108+Q02153)
# T1 construct: expressed in transfected cells
# T1 sequence (Q02108 1-690): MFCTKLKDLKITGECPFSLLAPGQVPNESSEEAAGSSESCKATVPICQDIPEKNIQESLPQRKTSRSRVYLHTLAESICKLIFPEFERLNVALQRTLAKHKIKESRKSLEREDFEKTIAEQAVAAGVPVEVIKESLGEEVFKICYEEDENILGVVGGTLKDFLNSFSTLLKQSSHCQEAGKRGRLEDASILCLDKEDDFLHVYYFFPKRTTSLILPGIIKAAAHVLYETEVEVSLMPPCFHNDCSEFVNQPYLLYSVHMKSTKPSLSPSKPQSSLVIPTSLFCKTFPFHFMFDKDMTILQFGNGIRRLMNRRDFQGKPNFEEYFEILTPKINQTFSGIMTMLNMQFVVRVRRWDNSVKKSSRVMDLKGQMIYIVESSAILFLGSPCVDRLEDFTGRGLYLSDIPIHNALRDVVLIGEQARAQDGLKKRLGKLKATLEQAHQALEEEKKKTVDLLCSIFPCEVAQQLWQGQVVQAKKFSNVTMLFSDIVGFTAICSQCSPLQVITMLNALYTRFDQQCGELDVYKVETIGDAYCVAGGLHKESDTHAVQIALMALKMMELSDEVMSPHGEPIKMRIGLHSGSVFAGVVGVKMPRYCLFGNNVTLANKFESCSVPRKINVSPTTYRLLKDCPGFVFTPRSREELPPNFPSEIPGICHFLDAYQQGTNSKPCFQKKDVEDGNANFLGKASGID
# T1 sequence (Q02153 1-619): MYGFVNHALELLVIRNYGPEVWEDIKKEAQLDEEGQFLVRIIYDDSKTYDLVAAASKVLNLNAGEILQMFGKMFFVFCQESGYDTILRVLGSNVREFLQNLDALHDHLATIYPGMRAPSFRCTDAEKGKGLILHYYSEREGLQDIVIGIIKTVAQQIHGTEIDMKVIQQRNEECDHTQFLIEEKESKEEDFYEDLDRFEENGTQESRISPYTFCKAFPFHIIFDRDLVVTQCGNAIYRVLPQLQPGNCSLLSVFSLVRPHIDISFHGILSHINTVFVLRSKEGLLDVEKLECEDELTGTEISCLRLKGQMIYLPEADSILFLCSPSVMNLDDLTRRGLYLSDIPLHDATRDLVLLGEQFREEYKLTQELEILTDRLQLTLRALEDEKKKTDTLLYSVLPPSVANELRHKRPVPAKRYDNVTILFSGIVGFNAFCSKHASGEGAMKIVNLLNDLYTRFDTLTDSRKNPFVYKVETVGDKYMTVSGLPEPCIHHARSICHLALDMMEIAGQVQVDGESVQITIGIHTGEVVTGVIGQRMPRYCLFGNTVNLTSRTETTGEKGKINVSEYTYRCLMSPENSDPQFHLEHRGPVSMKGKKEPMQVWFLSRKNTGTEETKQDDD
# Assay: Cell-based sGC Functional Assay (CASA Assay), cGMP generation
# Details: CHO-K1/sGC cells, 1 hr at 37° C., cGMP by HTRF, 4P fit; presence or absence of 1 μM DETA-NO not given; read-out: IP (nM) (inflection point)
# Excerpt: sGC is a heme-containing enzyme that converts GTP to secondary messenger cGMP. Increases in cGMP levels affect several physiological processes including vasorelaxation through multiple downstream pathways. […] Heme-dependent activators (HDAs) preferentially activate sGC containing a ferrous heme group. To determine the effect of sGC activators on enzyme activity, the CASA assay was developed to monitor the generation of cGMP in a cell line that stably expresses the heterodimeric sGC protein.
# A CHO-K1 cell line stably expressing the sGC α1/β1 heterodimer was generated using a standard transfection protocol. CHO-K1 cells were transfected with plasmids pIREShyghsGCα1 and pIRESneo-hsGCβ1 simultaneously using FUGENE reagent. Clones that stably express both subunits were selected with hygromycin and neomycin for ˜2 weeks. Clone #7 was chosen for the assay and was designated CHO-K1/sGC. CHO-K1/sGC cells were maintained in F-K12 medium containing 10% heat-inactivated Fetal Bovine Serum (FBS), 100 μg/mL penicillin/streptomycin, 0.5 mg/mL hygromycin and 0.25 mg/mL G418. The cells were then cryopreserved in LN2. On the day of the assay, cells thawed and resuspended in EBSS Assay Buffer (Sigma, E3024) supplemented with 5 mM MgCl2, 10 mM HEPES (4-(2-hydroxyethyl)piperazine-1-ethanesulfonic acid) and 0.05% BSA (bovine serum albumin) (EAB) and cell density was then adjusted to 4×10^5/mL with EAB, IBMX (3-isobutyl-1-methylxanthin, 0.5 mM) was added to inhibit degradation of cGMP. Compounds were diluted from DMSO stock solutions and added to the assay at a final DMSO concentration of 2.5%. Cells were incubated with compounds in the presence and absence of 1 μM of Diethylenetriamine/nitric oxide adduct (DETA-NO; Sigma, 17018) for 1 hr at 37° C. At the end of the incubation period, the reaction was terminated and the cells were lysed with the detection reagents from Cisbio Kits. The level of intracellular cGMP was determined using an HTRF-based assay kit (CisBio, 62GM2PEC), which detects the displacement of a fluorescence labeled cGMP from its specific antibody. The cGMP produced by test compounds was directly compared to the maximum cGMP production (this value was set to equal 100% activation.) of the published sGC-HDA Compound A:
# [drawing 300] (Example 1 in WO 2010/065275, published Jun. 10, 2010). The test compounds' activities were then expressed as a percentage of Compound A, the standard in every experiment. This percent activation was calculated either in the presence or absence of DETA-NO which was then plotted. IP and maximum fold induction was derived using ADA analysis software for 4P fit.
# The compounds in the Examples of the instant invention had inflection points (IP) less than or equal to 10 μM and more particularly less than or equal to about 1 μM.
row,Compound,EC50
1,"CCCCc1nc(-c2nc(O)c3c(n2)NC(=O)C3(C)c2cccc(F)c2)cn2ncnc12 (centres unmarked) [Example 171A, 2-(8-Butyl-[1,2,4]triazolo[1,5-a]pyrazin-6-yl)-5-(3-fluorophenyl)-4-hydroxy-5-methyl-5,7-dihydro-6H-pyrrolo[2,3-d]pyrimidin-6-one]",137 nM
2,"CCCCc1nc(-c2nc(N)c3c(n2)NC(=O)C3(C)c2nnc(C(F)(F)F)o2)cn2ncnc12 (centres unmarked) [Example 102A, 4-amino-2-(8-butyl-[1,2,4]triazolo[1,5-a]pyrazin-6-yl)-5-methyl-5-(5-(trifluoromethyl)-1,3,4-oxadiazol-2-yl)-5H-pyrrolo[2,3-d]pyrimidin-6(7H)-one]",29.1 nM
3,"CC1(c2ccc(F)c(Cl)c2)C(=O)Nc2nc(-c3cn4ncnc4c(CCCC(F)(F)F)n3)nc(N)c21 (centres unmarked) [Example 42B, 4-amino-5-(3-chloro-4-fluorophenyl)-5-methyl-2-(8-(4,4,4-trifluorobutyl)-[1,2,4]triazolo[1,5-a]pyrazin-6-yl)-5H-pyrrolo[2,3-d]pyrimidin-6(7H)-one]",8.7 nM
4,"CC1(c2ccc(Cl)cc2)C(=O)Nc2nc(-c3cn4ncnc4c(CCCC(F)(F)F)n3)nc(O)c21 (centres unmarked) [Example 142A, 5-(4-chlorophenyl)-4-hydroxy-5-methyl-2-(8-(4,4,4-trifluorobutyl)-[1,2,4]triazolo[1,5-a]pyrazin-6-yl)-5H-pyrrolo[2,3-d]pyrimidin-6(7H)-one]",207 nM
5,"Cc1ccc(C2(C)C(=O)Nc3nc(-c4cn5ncnc5c(CCCC(F)(F)F)n4)nc(O)c32)nc1 (centres unmarked) [Example 149B, 4-hydroxy-5-methyl-5-(5-methylpyridin-2-yl)-2-(8-(4,4,4-trifluorobutyl)-[1,2,4]triazolo[1,5-a]pyrazin-6-yl)-5H-pyrrolo[2,3-d]pyrimidin-6(7H)-one]",990 nM
6,"CC1(c2ccc(Cl)cc2)C(=O)Nc2nc(-c3cn4ncnc4c(CCCC(F)(F)F)n3)nc(N)c21 (centres unmarked) [Example 29A, 4-amino-5-(4-chlorophenyl)-5-methyl-2-(8-(4,4,4-trifluorobutyl)-[1,2,4]triazolo[1,5-a]pyrazin-6-yl)-5H-pyrrolo[2,3-d]pyrimidin-6(7H)-one]",11.4 nM
7,"CCCCc1nc(-c2nc(O)c3c(n2)NC(=O)C3(C)c2ccc(Cl)cn2)cn2ncnc12 (centres unmarked) [Example 160A, 2-(8-butyl-[1,2,4]triazolo[1,5-a]pyrazin-6-yl)-5-(5-chloropyridin-2-yl)-4-hydroxy-5-methyl-5H-pyrrolo[2,3-d]pyrimidin-6(7H)-one]",50.2 nM
8,"CCCCc1nc(-c2nc(O)c3c(n2)NC(=O)C3(C)c2ccc(F)cn2)cn2ncnc12 (centres unmarked) [Example 155B, 2-(8-butyl-[1,2,4]triazolo[1,5-a]pyrazin-6-yl)-5-(5-fluoropyridin-2-yl)-4-hydroxy-5-methyl-5H-pyrrolo[2,3-d] pyrimidin-6(7H)-one]",163 nM

# Further lines, results first:
row,EC50,Compound
1,25.2 nM,"CC1(c2ccccn2)C(=O)Nc2nc(-c3cn4ncnc4c(CCC(F)(F)C(F)(F)F)n3)nc(N)c21 (centres unmarked) [Example 11B, 4-amino-5-methyl-2-(8-(3,3,4,4,4-pentafluorobutyl)-[1,2,4]triazolo[1,5-a]pyrazin-6-yl)-5-(pyridin-2-yl)-5H-pyrrolo[2,3-d]pyrimidin-6(7H)-one]"
2,673 nM,"O=C1Nc2nc(-c3cn4ncnc4c(CCCC(F)(F)F)n3)nc(O)c2C1(c1ccc(F)cc1)C1CC1 (centres unmarked) [Example 139B, 5-cyclopropyl-5-(4-fluorophenyl)-4-hydroxy-2-(8-(4,4,4-trifluorobutyl)-[1,2,4]triazolo[1,5-a]pyrazin-6-yl)-5H-pyrrolo[2,3-d]pyrimidin-6(7H)-one]"
3,11 nM,"CC1(c2ccc(F)c(F)c2)C(=O)Nc2nc(-c3cn4ncnc4c(CCCC(F)(F)F)n3)nc(N)c21 (centres unmarked) [Example 38B, 4-amino-5-(3,4-difluorophenyl)-5-methyl-2-(8-(4,4,4-trifluorobutyl)-[1,2,4]triazolo[1,5-a]pyrazin-6-yl)-5H-pyrrolo[2,3-d]pyrimidin-6(7H)-one]"
4,2490 nM,"Nc1nc(-c2cn3ncnc3c(CCC(F)(F)F)n2)nc2c1C(c1ccc(C(F)(F)F)cn1)(C1CC1)C(=O)N2 (centres unmarked) [Example 80A, 4-amino-5-cyclopropyl-5-(5-(trifluoromethyl)pyridin-2-yl)-2-(8-(3,3,3-trifluoropropyl)-[1,2,4]triazolo[1,5-a]pyrazin-6-yl)-5H-pyrrolo[2,3-d]pyrimidin-6(7H)-one]"
5,1300 nM,"O=C1Nc2nc(-c3cn4ncnc4c(CCCC(F)(F)F)n3)nc(O)c2C1(c1ccc(C(F)(F)F)cc1)C1CC1 (centres unmarked) [Example 144A, 5-cyclopropyl-4-hydroxy-2-(8-(4,4,4-trifluorobutyl)-[1,2,4]triazolo[1,5-a]pyrazin-6-yl)-5-(4-(trifluoromethyl)phenyl)-5H-pyrrolo[2,3-d]pyrimidin-6(7H)-one]"
6,80.6 nM,"CC1(c2ccc(C3CC3)nc2)C(=O)Nc2nc(-c3cn4ncnc4c(CCC(F)(F)C(F)(F)F)n3)nc(N)c21 (centres unmarked) [Example 13B, 4-amino-5-(6-cyclopropylpyridin-3-yl)-5-methyl-2-(8-(3,3,4,4,4-pentafluorobutyl)-[1,2,4]triazolo[1,5-a]pyrazin-6-yl)-5H-pyrrolo[2,3-d]pyrimidin-6(7H)-one]"
7,1260 nM,"CC1(c2ccccn2)C(=O)Nc2nc(-c3cn4ncnc4c(CCC(F)(F)C(F)(F)F)n3)nc(O)c21 (centres unmarked) [Example 127B, 4-hydroxy-5-methyl-2-(8-(3,3,4,4,4-pentafluorobutyl)-[1,2,4]triazolo[1,5-a]pyrazin-6-yl)-5-(pyridin-2-yl)-5H-pyrrolo[2,3-d]pyrimidin-6(7H)-one]"
8,27.1 nM,"CC1(c2ccc(C(F)(F)F)cc2)C(=O)Nc2nc(-c3cn4ncnc4c(CCCC(F)(F)F)n3)nc(N)c21 (centres unmarked) [Example 24B, 4-amino-5-methyl-2-(8-(4,4,4-trifluorobutyl)-[1,2,4]triazolo[1,5-a]pyrazin-6-yl)-5-(4-(trifluoromethyl)phenyl)-5H-pyrrolo[2,3-d]pyrimidin-6(7H)-one]"

# Same assay, conditions: CHO-K1/sGC cells, 1 hr at 37° C., cGMP by HTRF; presence or absence of 1 μM DETA-NO not given; read-out: % Act. (percent activation relative to maximum cGMP production of Compound A = 100%)
row,Emax,Compound
1,90%,"CCCCc1nc(-c2nc(O)c3c(n2)NC(=O)C3(C)c2cccc(F)c2)cn2ncnc12 (centres unmarked) [Example 171A, 2-(8-Butyl-[1,2,4]triazolo[1,5-a]pyrazin-6-yl)-5-(3-fluorophenyl)-4-hydroxy-5-methyl-5,7-dihydro-6H-pyrrolo[2,3-d]pyrimidin-6-one]"
